Source: patent US12551532B2, “Long-acting amylin receptor agonists and uses thereof” (Eli Lilly and Company, priority 2021, dated 2026)
Starred links: 1 amine or outer side, 2 acyl side, 3 side chain; linkers in the order of their positions; H or OH if unused. Positions of bridges follow the written chain, without caps; N, C: chain ends. Non-standard residues stand in square brackets, D forms with d. Residues, ends and D or L forms follow the SMILES beside them. Groups on a side chain read outwards from the residue. *: point of attachment. C20 diacid = O=C(O)CCCCCCCCCCCCCCCCCCC(=O)*; γGlu = O=C(O)[C@H](CCC(=O)[*:2])N[*:1]; αMeL = CC(C)C[C@](C)(N)C(=O)O; Orn = NCCC[C@H](N)C(=O)O; CH2 = C([*:1])[*:2]

Experiments:
[1] = biological target: T1, hAMY1R (Homo sapiens, UniProt O60894+P30988); test: hAMY1R competitive radioligand binding filter assay (125I-rAMY); settings: ± SE; membranes of hAMY1R overexpressing cells
T1 construct: expressed in transfected cells
T1 sequence (P30988 25-474): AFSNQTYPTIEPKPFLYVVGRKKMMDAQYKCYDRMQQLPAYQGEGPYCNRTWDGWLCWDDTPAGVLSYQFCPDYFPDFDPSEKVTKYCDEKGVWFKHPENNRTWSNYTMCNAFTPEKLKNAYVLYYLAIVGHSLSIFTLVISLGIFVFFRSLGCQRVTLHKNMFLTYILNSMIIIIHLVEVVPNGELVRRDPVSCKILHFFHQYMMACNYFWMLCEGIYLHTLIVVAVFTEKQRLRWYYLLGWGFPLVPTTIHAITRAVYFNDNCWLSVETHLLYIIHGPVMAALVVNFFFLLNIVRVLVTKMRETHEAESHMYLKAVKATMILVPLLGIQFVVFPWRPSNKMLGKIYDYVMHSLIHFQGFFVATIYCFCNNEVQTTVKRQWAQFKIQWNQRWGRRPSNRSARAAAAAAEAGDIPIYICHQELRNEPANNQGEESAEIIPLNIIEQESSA
T1 sequence (O60894 27-148 partner): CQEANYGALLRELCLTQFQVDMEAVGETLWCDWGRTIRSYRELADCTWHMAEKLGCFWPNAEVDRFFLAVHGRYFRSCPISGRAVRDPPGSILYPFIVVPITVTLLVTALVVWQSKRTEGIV
Procedure: The equilibrium dissociation constants (Kd) for the various receptor/radioligand interactions are determined from saturation binding analysis using the same reagents and buffers as described below for compound testing.
The receptor binding affinity (Ki) of rAMY, hCT, and hAMY agonist peptides are determined from a competitive radioligand binding filter assay. The assay buffer consists of (in mM) 50 HEPES, pH 7.1, 5 MgCl2, 5 KCl, 0.2% (w/v) bacitracin, 0.003% (w/v) saponin and is used to dilute radioligand and membrane preparation. Binding reactions are carried out in 0.1 mL total reaction volume in a polystyrene 96 deep-well assay block. […] Test compounds and non-specific binding (NSB—defined as 300 nM rAMY) are added to aliquots of radioactivity buffer. […] The binding reaction is initiated by the addition of 0.05 mL of 200 μg/mL hAMY1R diluted in assay buffer to the radioactivity. Assay blocks are gently vortexed, sealed with parafilm, and incubated at RT for approximately 20 hours. […] At the end of the incubation, bound ligand is separated from free by addition of an ice cold quench buffer consisting of 100 mM NaCl, 50 mM TRIS-HCl pH 7.1 and immediately collected over the filter mat by vacuum filtration with a TomTec 96 well filter harvester using the following filter protocol (Dry time, 7; Cycle 3 repeat, 0; Wash Time, 1; Soak Time, 1; 1st Aspirate Time, 4; Wash/Aspirate Time, 7; 2nd Aspirate, 4; air pressure 2 PSI).

[2] = Pharmacokinetics in male cynomolgus monkeys; assay type: in vivo; settings: single SC 20 nmol/kg, mean
Procedure: (§1) The pharmacokinetics of Compound II (SEQ ID NO:2), Compound IV (SEQ ID NO:4), Compound VI (SEQ ID NO:6), and Compound VIII (SEQ ID NO:8) are evaluated following a single subcutaneous administration of 20 nmol/kg to male cynomolgus monkeys. Blood samples are collected at 1, 3, 6, 12, 24, 48, 72, 120, 168, 240, 336, 408, 504 hours post SC dose. The resulting individual plasma concentrations are used to calculate pharmacokinetic parameters. Peptide plasma (K3EDTA) concentrations are determined using a qualified LC/MS method that measured the intact mass of the peptides. Each peptide and an analog as an internal standard are extracted from plasma. A high resolution Thermo Q-Exactive is used for LC/MS detection.

[3] = tested on: CD4+ T cells; test: T cell proliferation assay; settings: 7-10 donors with diverse MHC
Procedure: This assay assesses the ability of tested antibodies or tested MAPPS peptides to activate CD4+ T cells by inducing cellular proliferation. CD8+ T cell depleted PBMC's are prepared and labeled with CFSE. Each sample is tested with media control, keyhole limpet haemocyanin (KLH; positive clinical benchmark control), tested antibodies, or tested MAPPS peptides. Cultures are incubated for 7 days. On day 7, samples are analyzed by flow cytometry.

[4] = biological target: T1, hAMY1R; test: hAMY1R cAMP functional activity (HTRF); assay type: cell-based; settings: ±SE; UMUC3 cells overexpressing hAMY1R; relative EC50
Procedure, shortened: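 UMUC3 cells expressing hCTR plus transfected human RAMP1 (AMY1R) were treated with peptide in a 1:3 dilution series at 1500 cells/well for 1 h at room temperature. Intracellular cAMP was measured by HTRF after 60 min lysis-detection and converted to pmol/well against a standard curve for each run.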

[5] = Pharmacokinetics in male Sprague Dawley rats; assay type: in vivo; settings: single SC 30 nmol/kg, mean
Procedure: as §1, with “30” for “20”, “Sprague Dawley rats.” for “cynomolgus monkeys.”, “96” for “120, 168, 240, 336, 408, 504”

[6] = male, cynomolgus monkey, plasma, n = 3

Ki [1]: 0.0435 ± 0.0072 nM | CL/F [2, 6]: 1.07 mL/h/kg | Tmax [2, 6]: 28 ± 18.3 h | half-life ([2]; male, cynomolgus monkey, plasma, n = 3, read-out: T½ (converted)): 62 ± 4.7 h | AUCINF/D ([2]; n = 3): 942 ± 67 hr * kg * nmol/L/nmol | Cmax/D ([2]; n = 3): 7.2 ± 0.3 kg * nmol/L/nmol | EC50 [4]: 0.107 ± 0.02 nM | CL/F ([5]; rat, plasma, n = 3): 3.7 mL/h/kg | Tmax ([5]; rat, plasma, n = 3): 16 ± 6.9 h | half-life ([5]; rat, plasma, n = 3, read-out: T l/2 (converted)): 36.4 ± 2.93 h | AUCINF/D ([5]; n = 3): 270 ± 22.4 hr * kg * nmol/L/nmol | Cmax/D ([5]; n = 3): 3.8 ± 0.4 kg * nmol/L/nmol
Structure (SMILES): CC[C@H](C)[C@H](NC(=O)[C@@H]1CCCN1C(=O)CNC(=O)[C@H](Cc1ccccc1)NC(=O)[C@H](CC(N)=O)NC(=O)[C@H](Cc1c[nH]cn1)NC(=O)[C@H](CO)NC(=O)[C@H](CO)NC(=O)[C@H](CCCNC(=N)N)NC(=O)[C@@H](NC(=O)[C@H](CC(C)C)NC(=O)[C@H](Cc1ccccc1)NC(=O)[C@H](CCC(=O)O)NC(=O)[C@H](C)NC(=O)[C@](C)(CC(C)C)NC(=O)[C@H](CCCN)NC(=O)CNC(=O)[C@@H](NC(=O)[C@H](C)NC(=O)[C@@H]1CSCSC[C@H](NC(=O)[C@@H](N)CCCCNC(=O)CC[C@H](NC(=O)CC[C@H](NC(=O)CCCCCCCCCCCCCCCCCCC(=O)O)C(=O)O)C(=O)O)C(=O)N[C@@H](CCC(=O)O)C(=O)N[C@@H]([C@@H](C)O)C(=O)N[C@@H](C)C(=O)N[C@@H]([C@@H](C)O)C(=O)N1)[C@@H](C)O)C(C)C)C(=O)N[C@@H](CC(C)C)C(=O)N1CCC[C@H]1C(=O)N1CCC[C@H]1C(=O)N[C@H](C(=O)N[C@@H](CCC(=O)O)C(=O)N[C@H](C(=O)NCC(=O)N[C@@H](CO)C(=O)N[C@@H](CC(N)=O)C(=O)N[C@H](C(=O)N[C@@H](Cc1ccc(O)cc1)C(N)=O)[C@@H](C)O)C(C)C)[C@@H](C)O [Compound VIII] (H-K([γGlu-γGlu-C20 diacid])CETATCATG[Orn][αMeL]AEFLVRSSHNFGPILPPTEVGSNTY-NH2; linker 2-7 via CH2)
T Cell Proliferation Assay: protein, immunogenicity risk [3]: Low Risk | T Cell Proliferation Assay: protein, positive donors [3]: (1/9
